Biological target: recombinant human His6-USP1/His6-UAF1 composite protein (Homo sapiens (Human), UniProt O94782)
Test: USP1 enzyme activity detection (Ub-Rho fluorescence)
Assay type: biochemical
Details: USP1/UAF1, Ub-Rho substrate 300 nM, 1 hour pre-incubation; read-out: IC50 (enzymatic inhibition of USP1)
Text: USPli compounds were screened by USP1 enzyme activity detection experiment.
1.1 Experimental materials: recombinant human His6-USP1/His6-UAF1 composite protein. (R&D, catalog number E-568-050): Ubiquitin rhodamine 110 (Ub-Rho) (R&D, catalog number U-555-050); Fluorescent 384-well plate (Perkin Elmer, Art. No. 6007279).
1.2 Test sample: Compounds of table 3 in this application, whose structural formulae and preparation methods are shown in the above examples.
Using Equation (I) to fit data in Excel to obtain the inhibition value;
[formula] • wherein, the maximum signal value represents the luminous signal intensity of the positive control hole without adding the compound of the application; the minimum signal value represents the luminous signal intensity of the negative control hole without enzyme; and the target signal value represents the luminous signal intensity of the Test samples; and • fitting the data in XL-Fit with Equation (II) to obtain IC50 value:
[formula] • wherein Y is the inhibition rate, X is the concentration of the compound; Bottom is the lowest inhibition rate; Top is the highest inhibition rate; and HillSlope is the slope.

Sequence of recombinant human His6-USP1/His6-UAF1 composite protein (O94782 whole entry): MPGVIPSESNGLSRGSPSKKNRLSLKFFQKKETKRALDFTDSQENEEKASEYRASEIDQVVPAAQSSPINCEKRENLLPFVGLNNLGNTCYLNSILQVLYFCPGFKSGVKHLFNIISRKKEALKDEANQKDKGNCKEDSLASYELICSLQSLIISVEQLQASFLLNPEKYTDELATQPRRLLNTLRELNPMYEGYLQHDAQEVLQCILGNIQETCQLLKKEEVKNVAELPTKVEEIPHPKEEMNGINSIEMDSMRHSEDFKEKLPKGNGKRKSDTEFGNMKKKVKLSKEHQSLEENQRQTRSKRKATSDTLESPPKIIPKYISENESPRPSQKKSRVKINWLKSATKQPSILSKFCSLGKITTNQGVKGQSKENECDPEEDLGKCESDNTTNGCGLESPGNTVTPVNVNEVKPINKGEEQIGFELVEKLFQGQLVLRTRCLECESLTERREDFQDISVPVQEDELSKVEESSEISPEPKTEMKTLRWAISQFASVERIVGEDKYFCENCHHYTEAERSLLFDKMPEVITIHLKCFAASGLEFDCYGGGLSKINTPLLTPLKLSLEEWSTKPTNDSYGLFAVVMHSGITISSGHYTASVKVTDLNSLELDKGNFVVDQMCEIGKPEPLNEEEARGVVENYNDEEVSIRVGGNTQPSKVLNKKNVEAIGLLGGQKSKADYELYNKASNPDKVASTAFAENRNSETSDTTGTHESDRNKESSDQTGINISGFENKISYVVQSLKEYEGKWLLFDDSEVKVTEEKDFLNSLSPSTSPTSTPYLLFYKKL
Sequence of recombinant human His6-USP1/His6-UAF1 composite protein (Q8TAF3 whole entry partner): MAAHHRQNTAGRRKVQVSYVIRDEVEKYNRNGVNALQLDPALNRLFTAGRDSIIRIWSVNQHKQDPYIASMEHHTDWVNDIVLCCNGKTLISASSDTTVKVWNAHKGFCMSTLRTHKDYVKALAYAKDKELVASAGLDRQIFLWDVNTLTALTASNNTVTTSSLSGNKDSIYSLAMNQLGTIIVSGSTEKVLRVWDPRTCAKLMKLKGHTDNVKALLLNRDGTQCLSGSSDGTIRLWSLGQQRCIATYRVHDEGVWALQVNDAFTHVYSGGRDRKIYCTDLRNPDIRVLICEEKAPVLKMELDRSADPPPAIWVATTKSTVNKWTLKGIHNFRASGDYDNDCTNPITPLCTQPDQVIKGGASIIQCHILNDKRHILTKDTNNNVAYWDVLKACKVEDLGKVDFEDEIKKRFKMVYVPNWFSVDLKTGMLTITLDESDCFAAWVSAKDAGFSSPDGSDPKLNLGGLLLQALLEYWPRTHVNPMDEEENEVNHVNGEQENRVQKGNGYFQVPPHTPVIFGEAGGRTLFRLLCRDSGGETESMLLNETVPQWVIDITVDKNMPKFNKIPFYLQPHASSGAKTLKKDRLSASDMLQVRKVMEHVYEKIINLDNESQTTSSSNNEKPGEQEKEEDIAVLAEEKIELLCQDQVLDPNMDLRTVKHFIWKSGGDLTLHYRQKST

| SMILES | IC50 |
| --- | --- |
| COc1ncnc(C2CC2)c1-c1ncc2c3ccccc3n(Cc3ccc(-c4nc(C(F)(F)F)cn4C)cc3)c2n1 [Compound 1, 2-(4-cyclopropyl-6-methoxypyrimidin-5-yl)-9-(4-(1-methyl-4-(trifluoromethyl)-1H-imidazol-2-yl)benzyl)-9H-pyrimido[4,5-b]indole] | 4.04 nM |
| COc1ncnc(C2CC2)c1-c1ncc2c3ccccc3n(Cc3ccc(-c4nc(C(F)(F)F)cn4C(C)C)cc3)c2n1 [Compound 2, 2-(4-cyclopropyl-6-methoxypyrimidin-5-yl)-9-(4-(1-isopropyl-4-(trifluoromethyl)-1H-imidazo 1-2-yl)benzyl)-9H-pyrimido[4,5-b]indole] | 7.55 nM |
| COc1ncnc(C2CC2)c1-c1ncc2c3ncccc3n(Cc3ccc(-c4nc(C(F)(F)F)cn4C(C)C)cc3)c2n1 [Compound 3, 2-(4-cyclopropyl-6-methoxypyrimidin-5-yl)-9-(4-(1-isopropyl-4-(trifluoromethyl)-1H-imidazo 1-2-yl)benzyl)-9H-pyridino[2′,3′: 4,5]pyrrolo[2,3-d]pyrimidine] | 5.55 nM |
| COc1ncnc(C2CC2)c1-c1ncc2c3c(F)cccc3n(Cc3ccc(-c4nc(C(F)(F)F)cn4C(C)C)cc3)c2n1 [Compound 4, 2-(4-cyclopropyl-6-methoxypyrimidin-5-yl)-5-fluoro-9-(4-(1-isopropyl-4-(trifluoromethyl)-1H-imidazol-2-yl)benzyl)-9H-pyrimido[4,5-b]indole] | 6.85 nM |
| COc1ncnc(C2CC2)c1-c1ncc2c3cccc(F)c3n(Cc3ccc(-c4nc(C(F)(F)F)cn4C(C)C)cc3)c2n1 [Compound 6, 2-(4-cyclopropyl-6-methoxypyrimidin-5-yl)-8-fluoro-9-(4-(1-isopropyl-4-(trifluoromethyl)-1H-imidazol-2-yl)benzyl)-9H-pyrimido[4,5-b]indole] | 6.07 nM |
| COc1ccc2c3cnc(-c4c(OC)ncnc4C4CC4)nc3n(Cc3ccc(-c4nc(C(F)(F)F)cn4C(C)C)cc3)c2c1 [Compound 7, 2-(4-cyclopropyl-6-methoxypyrimidin-5-yl)-9-(4-(1-isopropyl-4-(trifluoromethyl)-1H-imidazo 1-2-yl)benzyl)-7-methoxy-9H-pyrimido[4,5-b]indole] | 5.81 nM |
| COc1ncnc(C2CC2)c1-c1ncc2c3ccc(C(F)(F)F)cc3n(Cc3ccc(-c4nc(C(F)(F)F)cn4C(C)C)cc3)c2n1 [Compound 8, 2-(4-cyclopropyl-6-methoxypyrimidin-5-yl)-9-(4-(1-isopropyl-4-(trifluoromethyl)-1H-imidazo 1-2-yl)benzyl)-7-(trifluoroethyl)-9H-pyrimido[4,5-b]indole] | 21 nM |
| CCn1cc(C(F)(F)F)nc1-c1ccc(Cn2c3ccccc3c3cnc(-c4c(OC)ncnc4C4CC4)nc32)cc1 [Compound 9, 2-(4-cyclopropyl-6-methoxypyrimidin-5-yl)-9-(4-(1-ethyl-4-(trifluoromethyl)-1H-imidazol-2-yl)benzyl)-9H-pyrimido[4,5-b]indole] | 4.07 nM |
| CCOc1cc(C(F)(F)F)nn1-c1ccc(Cn2c3ccccc3c3cnc(-c4c(OC)ncnc4C4CC4)nc32)cc1 [Compound 10, 2-(4-cyclopropyl-6-methoxypyrimidin-5-yl)-9-(4-(5-ethoxy-3-(trifluoromethyl)-1H-pyrazol-1-yl)benzyl)-9H-pyrimido[4,5-b]indole] | 17.8 nM |
| COc1ncnc(C2CC2)c1-c1ncc2c3cc(C#N)ccc3n(Cc3ccc(-c4nc(C(F)(F)F)cn4C(C)C)cc3)c2n1 [Compound 12] | 58.3 nM |
| COc1ncnc(C2CC2)c1-c1ncc2c3ccccc3n([C@@H](C)c3ccc(-c4nc(C(F)(F)F)cn4C(C)C)cc3)c2n1 [Compound 13-P1] | 6.01 nM |
| COc1ncnc(C2CC2)c1-c1ncc2c3ccccc3n([C@H](C)c3ccc(-c4nc(C(F)(F)F)cn4C(C)C)cc3)c2n1 [Compound 13-P2] | 5 nM |
| COc1ncnc(C2CC2)c1-c1ncc2c3ccc(S(C)(=O)=O)cc3n(Cc3ccc(-c4nc(C(F)(F)F)cn4C(C)C)cc3)c2n1 [Compound 14] | 4.32 nM |
| COc1ncnc(C2CC2)c1-c1ncc2c3cc(F)ccc3n(Cc3ccc(-c4nc(C(F)(F)F)cn4C(C)C)cc3)c2n1 [Compound 15] | 12.2 nM |
| COc1ncnc(C2CC2)c1-c1ncc2c3ccccc3n(Cc3ccc(-c4nc(C(F)(F)F)cn4C(C)C)nc3)c2n1 [Compound 16] | 7.55 nM |
| COc1ncnc(C2CC2)c1-c1ncc2c3ccccc3n(Cc3ccc(-n4nc(C(F)(F)F)cc4C)cc3)c2n1 [Compound 17] | 9.28 nM |
| COc1cc(Cn2c3ccccc3c3cnc(-c4c(OC)ncnc4C4CC4)nc32)ccc1-c1nc(C(F)(F)F)cn1C(C)C [Compound 18] | 7.38 nM |
| COc1cc(Cn2c3ccccc3c3cnc(-c4c(OC)ncnc4C4CC4)nc32)cc(F)c1-c1nc(C(F)(F)F)cn1C(C)C [Compound 19] | 8.25 nM |

| SMILES | IC50 |
| --- | --- |
| CC(C)n1ncc(Cl)c1-c1ncc2c3ccccc3n(Cc3ccc(-c4nc(C(F)(F)F)cn4C)cc3)c2n1 [Compound 20] | 3.26 nM |
| COc1ncnc(C2CC2)c1-c1ncc2c3ccc(C#N)cc3n(Cc3ccc(-c4nc(C(F)(F)F)cn4C)cc3)c2n1 [Compound 21] | 4.39 nM |
| COc1ncnc(C2CC2)c1-c1ncc2c3cc(C(F)(F)F)ccc3n(Cc3ccc(-c4nc(C(F)(F)F)cn4C(C)C)cc3)c2n1 [Compound 22] | 135 nM |
| CCC(c1ccc(-c2nc(C(F)(F)F)cn2C(C)C)cc1)n1c2ccccc2c2cnc(-c3c(OC)ncnc3C3CC3)nc21 (centres unmarked) [Compound 23] | 11.7 nM |
| COc1ncnc(C2CC2)c1-c1ncc2c3ccccc3n(Cc3ccc(-n4nc(C)cc4C(F)(F)F)cc3)c2n1 [Compound 24] | 35.5 nM |
| COc1ncnc(C2CC2)c1-c1ncc2c3cccc(C#N)c3n(Cc3ccc(-c4nc(C(F)(F)F)cn4C)cc3)c2n1 [Compound 26] | 11.5 nM |
| COc1ncnc(C2CC2)c1-c1ncc2c3cccc(F)c3n(Cc3ccc(-c4nc(C(F)(F)F)cn4C)cc3)c2n1 [Compound 27] | 9.95 nM |
| COc1ncnc(C2CC2)c1-c1ncc2c3ccc(C(N)=O)cc3n(Cc3ccc(-c4nc(C(F)(F)F)cn4C)cc3)c2n1 [Compound 28] | 5.95 nM |
| COc1ncnc(C2CC2)c1-c1ncc2c3ccncc3n(Cc3ccc(-c4nc(C(F)(F)F)cn4C(C)C)cc3)c2n1 [Compound 29] | 4.62 nM |
| COc1ncnc(C2CC2)c1-c1ncc2c3ccc(S(N)(=O)=O)cc3n(Cc3ccc(-c4nc(C(F)(F)F)cn4C)cc3)c2n1 [Compound 30] | 5.71 nM |
| COc1ncnc(C2CC2)c1-c1ncc2c3c(n(Cc4ccc(-c5nc(C(F)(F)F)cn5C)cc4)c2n1)CCC3 [Compound 31] | 4.85 nM |
| COc1ncnc(C2CC2)c1-c1ncc2c(n1)n(Cc1ccc(-c3nc(C(F)(F)F)cn3C(C)C)cc1)c1nccn21 [Compound 32] | 19.1 nM |
| COc1ccc2c(c1)c1cnc(-c3c(OC)ncnc3C3CC3)nc1n2Cc1ccc(-c2nc(C(F)(F)F)cn2C(C)C)cc1 [Compound 33] | 26.1 nM |
| COc1ncnc(C2CC2)c1-c1ncc2c3cc(C(C)(C)O)ccc3n(Cc3ccc(-c4nc(C(F)(F)F)cn4C)cc3)c2n1 [Compound 34] | 62 nM |
| CCn1cc(C(F)(F)F)nc1-c1ccc(Cn2c3nc(-c4c(OC)ncnc4C4CC4)ncc3c3cccc(F)c32)cc1 [Compound 35] | 9.82 nM |
| COc1ncnc(C2CC2)c1-c1ncc2c3cccnc3n(Cc3ccc(-c4nc(C(F)(F)F)cn4C(C)C)cc3)c2n1 [Compound 36] | 8.98 nM |
| COc1ncnc(C2CC2)c1-c1ncc2c3cc(S(C)(=O)=O)ccc3n(Cc3ccc(-c4nc(C(F)(F)F)cn4C)cc3)c2n1 [Compound 37] | 58 nM |
